We go through 3 compounds from patent US11555006B2, “Elucidation of novel 13-series resolvins that increase with atorvastatin and clear infections” (The Brigham and Women's Hospital, Inc., priority 2015, dated 2023).

SMILES strings stand for the structures.

Experiment [1] relates to E. coli infections in mice. The experiment can be described thus: E. coli peritonitis in mice. It counts as in vivo. As to conditions: summary table of bioactions. The method, then:
All animal experiments were conducted in accordance with the Harvard Medical Area Standing Committee on Animals (protocol no. 02570). Mice (male FvB, 6-8 weeks old, Charles River, fed lab diet containing essential fatty acids as from supplier) were anesthetized with isoflurane and microbial peritonitis initiated. Briefly, test compounds or vehicle were injected i.p. or i.v. 5 min prior to live E. coli (serotype 06:K2:H1; 1×10^5 or 1×10^7 CFU/mouse). At designated time intervals mice were harvested, blood was collected via cardiac puncture in heparin, and peritoneal exudates were collected in 4 ml of PBS. The cellular composition in the exudates was determined using Turks solution and light microscopy, and by flow cytometry. For flow cytometry, exudate cells were incubated with anti-mouse CD16/CD32 (eBiosciences, 20 min, 4° C., in PBS containing 5% fetal calf serum-staining solution), followed by incubation with FITC-conjugated anti-mouse Ly6G antibody (clone: 1A8, eBiosciences), PE-conjugated anti-mouse F4/80 antibody (clone:BM8, eBiosciences) and PerCP-Cy5.5-conjugated anti-mouse CD11b antibody (clone:M1/70, eBiosciences) for 30 min (4° C., in staining solution). To assess bacterial phagocytosis in peritoneal exudate leukocytes, exudate cells were incubated with PerCP-Cy5.5-conjugated anti-mouse CD11b antibody (30 min, 4° C., in staining solution), then fixed and permeabilized using BD Perm/Wash™ Buffer (BD Biosciences) following manufacturer's instructions and incubated with FITC-conjugated anti-E. coli antibody (GenTex, 30 min, 4° C., in BD Perm/Wash™ Buffer). Efferocytosis in infectious exudates was assessed by incubating exudate leukocytes with PE-conjugated anti-mouse F4/80 antibody (30 min, 4° C., in staining solution), then fixed and permeabilized using BD Perm/Wash™ Buffer (BD Biosciences) and incubated with FITC-conjugated anti-mouse Ly6G antibody (30 min, 4° C., in BD Perm/Wash™ Buffer). Body temperatures were assessed using an Infrared thermometer (Fluke). Bacterial counts in peripheral blood and inflammatory exudates were determined by overnight cultures (37° C.) of serially diluted samples on LB agar plates. Caspase 1 levels were assessed by incubation of exudate cells with PerCP-Cy5.5-conjugated anti-mouse CD11b antibody (30 min, 4° C., in staining solution), then fixed and permeabilized using BD Perm/Wash™ Buffer (BD Biosciences), incubated with anti-caspase 1 antibody (Abcam, 30 min, 4° C., in BD Perm/Wash™ Buffer) followed by anti-rabbit Alexa 488 conjugated antibody (Life Technologies, 30 min, 4° C., in BD Perm/Wash™ Buffer). IL-1β levels were determined in cell-free supernatants using an anti-mouse IL-1β ELISA (Abcam) following manufacturer's instructions. Lactate dehydrogenase activity was measured in cell-free supernatants assessing the formation of NADH from NAD+ using a Lactate Dehydrogenase Assay kit (Sigma) following manufacturer's instructions.
In select experiments resolution indices were calculated as in ^27. Ψmax, maximal PMN numbers in exudates; Tmax, time point when PMN numbers reach maximum; R50, 50% of maximal PMN numbers; T50, time point when PMN numbers reduce to 50% of maximum; Ri (resolution interval), T50-Tmax, time period when 50% PMN are lost from the exudates. To assess the proresolving actions of the test products, these were administered 12 h after E. coli (10^5 CFU) inoculation, and resolution indices were assessed.
For some experiments, mice were administered via i.p. injection RvT1, RvT2, RvT3 and RvT4 (that were isolated as detailed below and combined as a mixture at a ratio of 2:1:1:8 respectively) 2 h after E. coli inoculation. Blood and lungs were harvested 6 h after E. Coli inoculation. Blood was employed to determine peripheral blood eicosanoid levels as detailed below.

The next experiment concerns human neutrophils. The experiment can be described thus: Human neutrophil phagocytosis and ROS. As to conditions: 1 pM-1.0 nM, n=4 donors. It counts as cell-based. Here is the method: Macrophages were prepared from peripheral blood mononuclear cells (PBMC) purchased from Children's Hospital Blood Bank, Boston, and phagocytosis was assessed as in^31. Briefly, macrophages (5×10^4 cells/well) were incubated with RvT1 (1 pM-10 nM), 1:1 mixture RvT2 and RvT3 (1 pM-10 nM), RvT4 (1 pM-10 nM) or vehicle (0.1% EtOH in DPBS) for 15 min at 37° C., then fluorescent labeled apoptotic cells were added and cells incubated 45 min at 37° C. Extracellular fluorescence was quenched using Trypan blue (1:15 dilution) and phagocytosis assessed using an M3 SpectraMax plate reader (Molecular Devices). […] Intracellular reactive oxygen species were determined by measuring fluorescence using an M3 SpectraMax plate reader. […] Extracellular fluorescence was then quenched using Trypan blue (1:15 dilution), and phagocytosis was assessed using an M3 SpectraMax plate reader.

Experiment [2] concerns human macrophages. Description: Human macrophage phagocytosis, ROS and efferocytosis. It counts as cell-based. Here is the method: Macrophages were prepared from peripheral blood mononuclear cells (PBMC) purchased from Children's Hospital Blood Bank, Boston, and phagocytosis was assessed as in^31. Briefly, macrophages (5×10^4 cells/well) were incubated with RvT1 (1 pM-10 nM), 1:1 mixture RvT2 and RvT3 (1 pM-10 nM), RvT4 (1 pM-10 nM) or vehicle (0.1% EtOH in DPBS) for 15 min at 37° C., then fluorescent labeled apoptotic cells were added and cells incubated 45 min at 37° C. Extracellular fluorescence was quenched using Trypan blue (1:15 dilution) and phagocytosis assessed using an M3 SpectraMax plate reader (Molecular Devices). In select experiments, macrophages (prepared as detailed above, 5×10^4 cells/well) or neutrophils (1×10^5 cells/well), obtained from human healthy volunteers and isolated as in ^31 in accordance with Partners Human Research Committee Protocol (number 1999P001297), were incubated with H2DCFDA (5 μM, 30 min, 37° C.), excess dye was washed off and cells incubated with RvT1 (1 pM-10 nM), 1:1 mixture RvT2 and RvT3 (1 pM-10 nM), RvT4 (1 pM-10 nM) or vehicle (0.1% EtOH in DPBS, 15 min, 37° C.), then incubated with E. coli (1:50 leukocytes to E. coli, 45 min, 37° C.). Intracellular reactive oxygen species were determined by measuring fluorescence using an M3 SpectraMax plate reader. To assess bacterial phagocytosis, macrophages (5×10^4 cells/well) or neutrophils (1×10^5 cells/well) were incubated with RvT1 (1 pM-10 nM), 1:1 mixture RvT2 and RvT3 (1 pM-10 nM), RvT4 (1 pM-10 nM) or vehicle (0.1% EtOH in DPBS, 15 min, 37° C.), then incubated with BacLight Green (Molecular Probes) labeled E. coli (1:50 leukocytes to E. coli, 45 min, 37° C.). Extracellular fluorescence was then quenched using Trypan blue (1:15 dilution), and phagocytosis was assessed using an M3 SpectraMax plate reader.

In experiment [3] the test system is human macrophages. The experiment can be described thus: Human macrophage caspase 1, IL-1β and lactate dehydrogenase. It counts as cell-based. The method, then:
Human macrophages (1.5×10^4 cells/well) were incubated with RvT1 (10 pM-10 nM), 1:1 mixture RvT2 and RvT3 (10 pM-10 nM), RvT4 (10 pM-10 nM) or vehicle (0.1% EtOH in DPBS, 15 min, 37° C.), then E. coli (7.5×10^5 cells/well, in DPBS, 16 h, 37° C.). Caspase 1 levels were assessed in macrophages by flow cytometry after cell fixing and permeabilization, staining with an anti-caspase 1 (Abcam; 4° C., 30 min) and anti-rabbit-Alexa 488 conjugated antibody (Molecular Probes; 4° C., 30 min). IL-1β levels were determined in cell-free supernatants using an anti-human IL-1β ELISA (eBiosciences) following manufacturer's instructions. Lactate dehydrogenase activity was measured in cell-free supernatants assessing the formation of NADH from NAD+ using a Lactate Dehydrogenase Assay kit (Sigma) following manufacturer's instructions.

For experiment [4], the target named is T1, human recombinant COX-2 (Homo sapiens, UniProt P35354).
T1 construct: purchased Cayman Chemicals
T1 sequence (P35354 18-604): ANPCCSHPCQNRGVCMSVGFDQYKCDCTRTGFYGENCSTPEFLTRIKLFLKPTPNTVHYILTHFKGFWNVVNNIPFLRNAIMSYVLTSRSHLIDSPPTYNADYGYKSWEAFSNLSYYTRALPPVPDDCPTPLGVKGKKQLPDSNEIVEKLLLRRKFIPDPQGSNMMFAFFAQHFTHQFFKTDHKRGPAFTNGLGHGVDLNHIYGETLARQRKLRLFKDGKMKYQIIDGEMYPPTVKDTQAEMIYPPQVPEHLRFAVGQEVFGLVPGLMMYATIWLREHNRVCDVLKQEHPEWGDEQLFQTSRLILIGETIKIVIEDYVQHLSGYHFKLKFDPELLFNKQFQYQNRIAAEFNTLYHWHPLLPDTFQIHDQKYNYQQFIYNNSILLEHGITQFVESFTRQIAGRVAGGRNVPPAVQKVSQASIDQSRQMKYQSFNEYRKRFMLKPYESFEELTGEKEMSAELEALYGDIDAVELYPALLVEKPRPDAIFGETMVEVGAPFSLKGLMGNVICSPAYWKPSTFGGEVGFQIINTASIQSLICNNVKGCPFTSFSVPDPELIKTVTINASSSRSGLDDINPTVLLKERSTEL
The experiment can be described thus: n-3 DPA conversion by S-nitrosylated hrCOX-2. It counts as biochemical. As to conditions: hrCOX-2 incubated with S-nitrosoglutathione.
Protocol: In designated experiments, n-3 DPA was incubated with hrCOX2, hrCOX-2 that was previously incubated with S-nitrosoglutathione (30 min RT), prepared by incubating 100 mM glutathione with 100 mM sodium nitrite in 200 mM hydrochloric acid at RT as in ^34 or S-nitrosoglutathione. After 20 min the incubations were quenched with methanol and 13-HDPA levels were assessed using LC-MS-MS-based LM metabololipidomics.

The subject of experiment [5] is human neutrophil-endothelial cell co-incubations. Description: Lipid mediator levels in human endothelial cell incubations and neutrophil-endothelial cell co-incubations. It counts as cell-based. Particulars: neutrophil-endothelial cells, 1 μM precursor.
Protocol: Prior to sample extraction, deuterated internal standards (d4-PGE2, d5-LXA4, d4-RvD2, d4-LTB4 and d8-5S-HETE) representing regions of interest in the chromatographic analysis (500 pg each) were added to facilitate quantification. Extracted samples were analyzed by a LC-MS-MS system, Qtrap 6500 (AB Sciex) equipped with a Shimadzu SIL-20AC autoinjector and LC-20AD binary pump (Shimadzu Corp.). An Agilent Eclipse Plus C18 column (100×4.6 mm×1.8 μm) was used with a gradient of methanol/water/acetic acid of 55:45:0.01 (vol:vol:vol) that was ramped to 85:15:0.01 (vol:vol:vol) over 10 min and then to 98:2:0.01 (vol:vol:vol) for the next 8 min. This was subsequently maintained at 98:2:0.01 (vol:vol:vol) for 2 min. The flow rate was maintained at 0.4 ml/min. To monitor and quantify the levels of lipid mediators, a multiple reaction monitoring (MRM) method was developed with signature ion fragments (m/z) for each molecule monitoring the parent ion (Q1) and a characteristic daughter ion (Q3). […] Calibration curves were determined using a mixture of lipid mediators obtained via total organic synthesis, where these lipid mediators were not available (RvT1, RvT2, RvT3, RvT4 and 13-HDPA); known mediators with similar chromatographic properties (RvD2 for RvT1, RvD1 for RvT2 and RvT3; RvD5 for RvT4; 13-HDHA for 13-HDPA) were used. […]
The target of experiment [6] is T1, human recombinant COX-2. The experiment can be described thus: Recombinant enzyme incubations, Michaelis Menten kinetics. It counts as biochemical. As to conditions: n-3 DPA converted to 13R-HDPA by human recombinant COX-2. Here is the method:
Human recombinant COX-2 (10 units; Cayman Chemicals; in 0.1 M Tris-HCl, pH 8.0, 20 μM porcine hematin, 0.67 mM phenol as in ^33) was incubated with the indicated concentrations of AA or n-3 DPA (1 h, RT) and absorbance at 235 nm was investigated at 1 min intervals using a Cary UV-Vis Spectrophotometer (Agilent).

Setting [7] is: summary table, macrophages and neutrophils.

Take `CCC(O)/C=C/C=C\C=C\C(O)C/C=C\C=C\C(O)CCCCCC(=O)O` (stereo not drawn) [RvT1, 7,13,20-trihydroxy-docosapentaenoic acid]: in experiment [1], the “In vivo: circulating platelet-leukocyte aggregates” value is given as “Reduces circulating platelet-”, the “In vivo: exudate pro-inflammatory eicosanoid levels during infections” value is “Reduces exudate pro-”, the “In vivo: infection induced hypothermia” value is given as “Protects against infection” and the “In vivo: macrophage efferocytosis of apoptotic neutrophils” value is recorded as “Stimulates macrophage”. In addition, in experiment [1], the “In vivo: murine leukocyte phagocytosis of E. coli” value is “Stimulates murine leukocyte”, the “In vivo: neutrophil recruitment during infections” value is given as “Limits neutrophil recruitment”, the “In vivo: protective actions of atorvastatin in infections” value was “Elaborates the protective” and the “In vivo: pyroptosis” value is “Reduces pyroptosis”. In addition, in the experiment on human neutrophils, the “increase in E. coli phagocytosis, human neutrophils” value is reported as 20-55% and the “increase in intracellular ROS, human neutrophils” value is 20-40%. Further, in the experiment on human macrophages [2] (1 pM-10 nM), the “E. coli phagocytosis in human macrophages” value is on record as “dose-dependently increased”, the “efferocytosis of apoptotic neutrophils by human macrophages” value is on record as “dose-dependently increased” and the “intracellular reactive oxygen species (ROS) in human macrophages” value is given as “dose-dependently increased”. For the same compound, the “In vitro: human macrophage efferocytosis of apoptotic neutrophils” value in the experiment with human macrophages [2] (summary table of bioactions) is “Stimulates human”. In addition, in the experiment on human macrophages [2] (setting [7]), the “In vitro: human macrophage and neutrophil intra-phagolysosomal ROS production” value was “Stimulates human”; the “In vitro: human macrophage and neutrophil phagocytosis of E. coli” value was “Stimulates human”. Further, in the experiment with human macrophages [3] (10 pM-10 nM, E. coli 16 h), the “IL-1β expression, human macrophages” value was “decreasing”; the “caspase-1 expression, human macrophages” value is on record as “decreasing”; the “extracellular lactate dehydrogenase activity, human macrophages” value is “decreasing”. For the same compound, in the experiment with human macrophages [3] (summary table of bioactions), the “In vitro: E. coli induced inflammasome components in human macrophages” value is “Reduces E. coli induced” and the “In vitro: E. coli induced macrophage pyroptosis” value is reported as “Reduces E. coli induced”.
In the case of `N[C@@H](CCC(=O)N[C@@H](CSN=O)C(=O)NCC(=O)O)C(=O)O` [S-nitrosoglutathione], at human recombinant COX-2 [4], the “13R-HDPA and hrCOX-2 catalytic activity compared to native COX-2” value is given as “increased”.
Usually Km stands for the substrate concentration at which the rate is half of its maximum. Consider `CC/C=C\C/C=C\C/C=C\C/C=C\C/C=C\CCCCCC(=O)O` [n-3 DPA, n-3 docosapentaenoic acid], for which, in experiment [5], the “increase in RvT amounts on co-incubation with precursor” value is 30-50%. The Km at human recombinant COX-2 [6] worked out at 3.1 ± 1.3 µM.
